Test results published in patent publication US8293705B2, “HCV protease inhibitors and uses thereof” (Avila Therapeutics, Inc., priority 2007, dated 2012).
Like-named read-outs stand apart in the source and are kept apart here.

Tests used:
[1] = system: HCV RNA replicon in cell line ET (luc-ubi-neo/ET), human Huh7 hepatoma; assay: Replicon luciferase assay, Example 26; type: cell-based; details: Hepatitis C virus, Huh-7, assay of Example 26, 72 hr; for EC50: read-out: Inhibition, Replicon, EC50 value; for EC90: read-out: Inhibition, Replicon, EC90 value
Protocol: The compounds were assayed to evaluate the antiviral activity and cytotoxicity of compounds using replicon-derived luciferase activity. This assay used the cell line ET (luc-ubi-neo/ET), which is a human Huh7 hepatoma cell line that contains an HCV RNA replicon with a stable luciferase (Luc) reporter and cell culture-adaptive mutations. The ET cell line was grown in a 5% CO2 incubator at 37° C. in Dulbecco's modified essential media (DMEM) supplemented with 2 mM L-glutamine, nonessential amino acids, 100 U of penicillin/ml, 100 μg of streptomycin/mL, and 10% fetal bovine serum. G418 (Geneticin; Invitrogen) was added at a final concentration of 400 ug//mL.
All cell culture reagents were obtained from Invitrogen (Carlsbad). Cells were trypsinized (1% trypsin:EDTA) and plated out at 5×10^3 cells/well in white 96-well assay plates (Costar) dedicated to cell number (cytotoxicity) or antiviral activity assessments. Test compounds were added at six 3-fold concentrations each and the assay was run in DMEM, 5% FBS, 1% pen-strep, 1% glutamine, 1% non essential amino acid. Human interferon alpha-2b (PBL Biolabs, New Brunswick, N.J.) was included in each run as a positive control compound. Cells were processed 72 hr post test compound addition when the cells were still subconfluent. Antiviral activity was measured by analyzing replicon-derived luciferase activity using the Steady-Glo Luciferase Assay System (Promega, Madison, Wis.) according to manufacturer's instruction. The number of cells in each well was determined by Cell Titer Blue Assay (Promega). Compound profile was derived by calculating applicable EC50 (effective concentration inhibiting virus replication by 50%), EC90 (effective concentration inhibiting virus replication by 90%), IC50 (concentration decreasing cell viability by 50%) and SI50 (selective index: […]) values.

[2] = biological target: T1, HCV NS3/4A 1b protease wild type (Hepatitis C virus genotype 1b, UniProt Q9WMX2); assay: HCV protease FRET assay (IC50_APP), Example 16; type: biochemical
T1 construct: 10× stocks of NS3/4A protease enzyme from Bioenza (Mountain View, Calif.); purchased Bioenza (Mountain View, Calif.)
Protocol: (§1) The following protocol was used to generate “apparent” IC50 (IC50 APP) values as depicted in Table 6, below. […] 5 μL of each enzyme were added to Corning (#3575) 384-well, black, microtiter plates (Corning, N.Y.) after spotting a 0.5 μL volume of 50% DMSO and serially diluted compounds prepared in 50% DMSO. Protease reactions were immediately started after enzyme addition with the addition of 45 μL of the FRET substrate and monitored for 60-90 minutes at λex485/λem520 in a Synergy^4 plate reader from BioTek (Winooski, Vt.). At the conclusion of each assay, progress curves from each well were examined for linear reaction kinetics and fit statistics (R^2, 95% confidence intervals, absolute sum of squares).
(§2) The compound numbers correspond to the compound numbers in Table 3. […] ;

[3] = biological target: T2, HCV NS3/4A 1b protease R155K (Hepatitis C virus genotype 1b, UniProt Q9WMX2, R1181K); assay: HCV protease FRET assay (IC50_APP), Example 16; type: biochemical; details: reaction started immediately after enzyme addition, read-out: Inhibition (apparent IC50, IC50_APP), HCV R155K
T2 construct: 10× stocks of NS3/4A protease enzyme from Bioenza (Mountain View, Calif.); purchased Bioenza (Mountain View, Calif.)
Protocol: as §1, §2

[4] = biological target: T3, HCV NS3/4A 1b protease D168A (Hepatitis C virus genotype 1b, UniProt Q9WMX2, D1194A); assay: HCV protease FRET assay (IC50_APP), Example 16; type: biochemical
T3 construct: 10× stocks of NS3/4A protease enzyme from Bioenza (Mountain View, Calif.); purchased Bioenza (Mountain View, Calif.)
Protocol: as §1, §2

Structure (SMILES)	EC50 [1] [nM]	IC50 [2] [nM]	IC50 [3] [nM]	IC50 [4] [nM]	EC90 [1] [nM]	IC50 ([2]; read-out: Inhibition (apparent IC50, IC50_APP), WT, FRET, reaction started immediately after enzyme addition) [nM]	IC50 ([4]; read-out: Inhibition (apparent IC50, IC50_APP), HCV D168A, FRET, reaction started immediately after enzyme addition) [nM]
C=C[C@@H]1C[C@]1(NC(=O)[C@@H]1CC(OC(=O)N2Cc3cccc(F)c3C2)CN1C(=O)[C@H](CCC(=O)C#CC(C)(C)C)NC(=O)OC(C)(C)C)C(=O)NS(=O)(=O)C1CC1 (stereo partly shown) [Compound I-29]	10 to 100	< 10	< 10	< 10			
CC[C@@H]1C[C@]1(NC(=O)[C@@H]1CC(OC(=O)N2Cc3cccc(F)c3C2)CN1C(=O)[C@H](CCC(=O)C=C(C)C)NC(=O)OC(C)(C)C)C(=O)NS(=O)(=O)C1CC1 (stereo partly shown) [Compound I-33]		< 10	100 to 1000	1000 to 10000			
C=CC(=O)N1CCC/C=C\[C@@H]2C[C@@]2(C(=O)NS(=O)(=O)C2CC2)NC(=O)[C@@H]2CC(OC(=O)N3Cc4cccc(F)c4C3)CN2C(=O)[C@@H](NC(=O)OC(C)(C)C)C1 (stereo partly drawn) [Compound I-35, (1aR,3aS,5R,9S,16aS,Z)-11-acryloyl-9-(tert-butoxycarbonylamino)-1a-(cyclopropylsulfonylcarbamoyl)-3,8-dioxo-1,1a,2,3,3a,4,5,6,8,9,10,11,12,13,14,16a-hexadecahydrocyclopropa[n]pyrrolo[2,1-c][1,4,8]triazacyclopentadecin-5-yl-4-fluoroisoindoline-2-carboxylate]	100 to 1000	< 10	10 to 100	10 to 100	100 to 1000		
C=CC(=O)N1CC/C=C\[C@@H]2C[C@@]2(C(=O)NS(=O)(=O)C2CC2)NC(=O)[C@@H]2CC(OC(=O)N3Cc4cccc(F)c4C3)CN2C(=O)[C@@H](NC(=O)OC(C)(C)C)CC1 (stereo partly shown) [Compound I-36]	100 to 1000	< 10	< 10	< 10	100 to 1000		
C=CC(=O)N1C/C=C\[C@@H]2C[C@@]2(C(=O)NS(=O)(=O)C2CC2)NC(=O)[C@@H]2CC(OC(=O)N3Cc4cccc(F)c4C3)CN2C(=O)[C@@H](NC(=O)OC(C)(C)C)CCC1 (stereo partly shown) [Compound I-37]	100 to 1000	< 10	10 to 100	10 to 100	1000 to 10000		
C/C=C(\C)C(=O)CC[C@H](NC(=O)OC(C)(C)C)C(=O)N1CC(OC(=O)N2Cc3cccc(F)c3C2)C[C@H]1C(=O)N[C@]1(C(=O)NS(=O)(=O)C2CC2)C[C@H]1CC (stereo partly shown) [Compound I-39]		< 10	10 to 100	100 to 1000			
C=CC(=O)NC[C@@H]1NC(=O)OCC(C)(C)CC/C=C/c2cccc3c2CN(C3)C(=O)O[C@@H]2C[C@@H](C(=O)N[C@]3(C(=O)NS(=O)(=O)C4CC4)C[C@H]3C=C)N(C2)C1=O [Compound I-40]		< 10	< 10	10 to 100			
C=CC(=O)NC[C@@H]1NC(=O)OCC(C)(C)CCCCc2cccc3c2CN(C3)C(=O)O[C@@H]2C[C@@H](C(=O)N[C@]3(C(=O)NS(=O)(=O)C4CC4)C[C@H]3C=C)N(C2)C1=O [Compound I-42]		< 10	10 to 100	10 to 100			
CCCCC(NC(=O)[C@@H]1C[C@@H](OC(=O)N2Cc3cccc(F)c3C2)CN1C(=O)[C@H](CCC(=O)C=C(C)C)NC(=O)OC(C)(C)C)C(=O)NS(=O)(=O)C1CC1 (stereo partly drawn) [Compound I-44, (3R,5S)-1-((S)-2-(tert-butoxycarbonylamino)-7-methyl-5-oxooct-6-enoyl)-5-(1-(cyclopropanesulfonamido)-1-oxohexan-2-ylcarbamoyl)pyrrolidin-3-yl 4-fluoroisoindoline-2-carboxylate]		< 10	1000 to 10000	1000 to 10000			
CC(C)(C)OC(=O)N[C@H]1CN(S(=O)(=O)c2ccccc2[N+](=O)[O-])CCC/C=C\[C@@H]2C[C@@]2(C(=O)NS(=O)(=O)C2CC2)NC(=O)[C@@H]2CC(OC(=O)N3Cc4cccc(F)c4C3)CN2C1=O (stereo partly shown) [Compound I-45]	10 to 100	< 10	< 10	< 10	100 to 1000		
C=CC(=O)N1CC(C(NC(C)=O)C(=O)N2CC(OC(=O)N3Cc4cccc(F)c4C3)C[C@H]2C(=O)N[C@]2(C(=O)NS(=O)(=O)C3CC3)C[C@H]2C=C)C1 (stereo partly shown) [Compound I-46]	1000 to 10000	< 10	< 10	10 to 100	1000 to 10000		
CC(C)(C)OC(=O)N[C@H]1CN(C(=O)CCl)CCC/C=C\[C@@H]2C[C@@]2(C(=O)N(C(=O)CCl)S(=O)(=O)C2CC2)NC(=O)[C@@H]2CC(OC(=O)N3Cc4cccc(F)c4C3)CN2C1=O (stereo partly shown) [Compound I-48]		10 to 100	100 to 1000	100 to 1000			
C=C[C@@H]1C[C@]1(NC(=O)[C@@H]1CC(OC(=O)N2Cc3cccc(F)c3C2)CN1C(=O)[C@@H](C)Nc1ccnc(Cl)n1)C(=O)NS(=O)(=O)C1CC1 (stereo partly shown) [Compound I-49]	1000 to 10000	100 to 1000	1000 to 10000	1000 to 10000	1000 to 10000		
C=C[C@@H]1C[C@]1(NC(=O)[C@@H]1CC(OC(=O)N2Cc3cccc(F)c3C2)CN1C(=O)C(CN(C)C(=O)/C=C/CN(C)C)NC(=O)OC(C)(C)C)C(=O)NS(=O)(=O)C1CC1 (stereo partly shown) [Compound I-50]	1000 to 10000	10 to 100	1000 to 10000	1000 to 10000	1000 to 10000		
C=CC(=O)N1CC(C(NC(=O)OC2CCCC2)C(=O)N2CC(OC(=O)N3Cc4cccc(F)c4C3)C[C@H]2C(=O)N[C@]2(C(=O)NS(=O)(=O)C3CC3)C[C@H]2C=C)C1 (stereo partly shown) [Compound I-51]	100 to 1000	< 10	10 to 100	10 to 100	1000 to 10000		
C=CC(=O)N(C)CC(NC(=O)C12CCC(C(=O)OC)(CC1)CC2)C(=O)N1CC(OC(=O)N2Cc3cccc(F)c3C2)C[C@H]1C(=O)N[C@]1(C(=O)NS(=O)(=O)C2CC2)C[C@H]1C=C (stereo partly shown) [Compound I-52]	1000 to 10000	10 to 100		1000 to 10000	1000 to 10000		
CC(C)(C)OC(=O)N[C@H]1CCN(S(=O)(=O)c2ccccc2[N+](=O)[O-])CC/C=C\[C@@H]2C[C@@]2(C(=O)NS(=O)(=O)C2CC2)NC(=O)[C@@H]2CC(OC(=O)N3Cc4cccc(F)c4C3)CN2C1=O (stereo partly shown) [Compound I-53]	10 to 100		< 10		100 to 1000	< 10	< 10
CC[C@@H]1C[C@]1(NC(=O)[C@@H]1C[C@@H](OC(=O)N2Cc3cccc(F)c3C2)CN1C(=O)[C@H](CC(=O)C=C(C)C)NC(=O)OC(C)(C)C)C(=O)NS(=O)(=O)C1CC1 [Compound I-60]		< 10	100 to 1000				
CC(C)(C)OC(=O)N[C@H]1COC(=O)/C=C/C=C\[C@@H]2C[C@@]2(C(=O)NS(=O)(=O)C2CC2)NC(=O)[C@@H]2C[C@@H](OC(=O)N3Cc4cccc(F)c4C3)CN2C1=O [Compound I-65]		< 10	10 to 100	100 to 1000			
C/C=C/C(=O)OC1CC/C=C\[C@@H]2C[C@@]2(C(=O)NS(=O)(=O)C2CC2)NC(=O)[C@@H]2C[C@@H](OC(=O)N3Cc4cccc(F)c4C3)CN2C(=O)[C@@H](NC(=O)OC(C)(C)C)CC1 (stereo partly shown) [Compound I-66]		< 10	< 10	< 10			
C=C[C@@H]1C[C@]1(NC(=O)[C@@H]1C[C@@H](OC(=O)N2Cc3cccc(F)c3C2)CN1C(=O)[C@H](COC(=O)/C=C/C=C/C)NC(=O)OC(C)(C)C)C(=O)NS(=O)(=O)C1CC1 [Compound I-67]		< 10	100 to 1000	100 to 1000			
C=C[C@@H]1C[C@]1(NC(=O)[C@@H]1CC(OC(=O)N2Cc3cccc(F)c3C2)CN1C(=O)[C@H](CC(=O)/C(C)=C/C)NC(=O)OC(C)(C)C)C(=O)NS(=O)(=O)C1CC1 (stereo partly shown) [Compound I-70]		< 10	100 to 1000	100 to 1000			
C=C[C@@H]1C[C@]1(NC(=O)[C@@H]1CC(OC(=O)N2Cc3cccc(F)c3C2)CN1C(=O)[C@H](CC/C=C/C(=O)OC)NC(=O)OC(C)(C)C)C(=O)NS(=O)(=O)C1CC1 (stereo partly shown) [Compound I-72]		< 10	10 to 100	100 to 1000			
